Patent US11234919B2, “Compound produced by means of marine microorganism and composition for improving skin wrinkles, enhancing elasticity and skin whitening comprising same compound as active ingredient” (KOREA INSTITUTE OF OCEAN SCIENCE & TECHNOLOGY, priority 2017, dated 2022)

Assays:
[1] = tested on: B-16 melanoma cells; assay: Melanogenesis inhibition in B-16 melanoma cell culture; assay type: cell-based; details: for Amount of melanin produced: absorbance at 400 nm per 10^6 cells, incubation 3 days
Method: The compounds shown in Table 1 were set to have final concentrations of 2 ppm and 20 ppm, and each of the compounds was added to a culture medium of B-16 melanoma cells, followed by incubation for 3 days. Thereafter, the cells were treated with trypsin, detached from the incubator, and centrifuged, and then melanin was extracted therefrom. The melanin was dissolved by addition of 1 mL of a sodium hydroxide solution (1 N) and boiling for 10 min, and then the absorbance was measured at 400 nm using a spectrometer, thereby determining the amount of melanin produced. The amount of melanin was measured as an absorbance per unit cell count (10^6 cells), and the amount of melanin production relative to the control with nothing added was calculated as an inhibition (%). The test was repeated three times.
To compare melanogenesis inhibiting activity of the compounds according to the present disclosure, 20 ppm arbutin was also tested by the same method, and the results are also shown in Table 3.

[2] = tested on: human-derived fibroblasts; assay: Increase in collagen synthesis, PICP EIA kit, human fibroblast culture; assay type: cell-based; details: final concentration 20 ppm, incubation one day; for Amount of collagen production: amount of collagen production as absorbance at 450 nm; for Collagen increase (%): ratio of collagen production relative to control
Method: Out of the compounds represented by Formula 2, the compounds according to the present disclosure shown in Table 1 were tested for collagen synthesis stimulating activity by addition to cultures of human-derived fibroblasts.
The measurement of synthesized collagen was conducted by quantification using a procollagen type I C-peptide enzyme immunoassay kit (PICP EIA kit).
Collagen synthetic ability was evaluated by selecting the concentrations causing no toxicity on the basis of cytotoxicity results.
In the test, the final concentration of the compounds of the present disclosure was set to 20 ppm. Each sample was added to the culture medium of human fibroblasts, followed by incubation for one day, and then the culture was taken out, and the degree of collagen synthesis was measured at each concentration through the PICP EIA kit by using a spectrometer at 450 nm. For comparison of effects, the degree of collagen synthesis was measured by the same method on a culture medium of fibroblasts with nothing added (control) and a sample with vitamin C added to a final concentration of 20 ppm. The amount of collagen production was measured as a UV absorbance, and the rate of increase in collagen production was calculated as a ratio of collagen production relative to the collagen production of the control.

[3] = melanin production relative to control with nothing added, final concentration 2 ppm, 3 days
[4] = melanin production relative to control with nothing added, final concentration 20 ppm, 3 days

Compound	inhibition at 20 ppm ([1]; Mus musculus, B16, 72 h, melanin production relative to control with nothing added, final concentration 20 ppm, 3 days) [%]	Amount of melanin produced ([1]; final concentration 20 ppm)	Amount of melanin produced ([1]; final concentration 2 ppm)	Inhibition (%) [1, 3] [%]	Inhibition (%) [1, 4] [%]	Amount of collagen production [2]	Collagen increase (%) [2] [%]
OC[C@H]1O[C@@H](Oc2ccc(O)cc2)[C@H](O)[C@@H](O)[C@@H]1O [Arbutin, arbutin, reference compound]	6.5	0.056 ± 0.001					
C=C(C)c1cc(O)cc(=O)o1 [Compound 1]		0.046 ± 0.001	0.047 ± 0.001	21.8	23.5	287.65	152.2
C/C=C(\C)c1oc(=O)c(C)c(O)c1C [Compound 2]		0.046 ± 0.001	0.048 ± 0.001	20.0	23.5	287.24	147.2
CC/C=C(\C)c1oc(=O)c(CC)c(O)c1CC [Compound 3]		0.047 ± 0.001	0.048 ± 0.001	20.0	21.8	287.24	147.2
C=C(C)c1oc(=O)cc(O)c1C(=O)O [Compound 4]		0.046 ± 0.001	0.048 ± 0.001	20.0	23.5	287.61	152.1
C/C=C(\C)c1oc(=O)c(C)cc1C [Compound 5]		0.047 ± 0.001	0.049 ± 0.001	18.3	21.8	287.65	152.2
C/C(=C\CO)c1cc(O)cc(=O)o1 [Compound 6]		0.046 ± 0.001	0.048 ± 0.001	18.3	23.5	287.61	152.1
CCc1c(C)c(C(=O)O)c(/C(C)=C/CO)oc1=O [Compound 9]		0.047 ± 0.001	0.049 ± 0.001	18.3	21.8	287.61	152.1
CC/C=C(\C)c1oc(=O)c(CC)c(C)c1CC [Compound 10]		0.047 ± 0.001	0.049 ± 0.001	18.3	21.8	287.24	147.2
O=C1O[C@H]([C@@H](O)CO)C(O)=C1O [Vitamin C, vitamin C, reference compound]						217.35	115.3
